Patent US9675607B2, “Epimorphic regeneration and related hydrogel delivery systems” (Northwestern University, priority 2013, dated 2017)
“Also recorded” adds a separate entry of the source.

Experiments:
[1] = system: diabetic wound; details: applied directly to the wound site; cited from earlier work
[2] = system: 3T3 fibroblasts; assay: Cell viability, ISO 10993 neutral red; assay type: cell-based; details: 24 hours, positive control
Description: Viability of 3T3 fibroblasts exposed to drug microcrystals was quantified using ISO 10993. Briefly, different dilutions of drug microcrystals in cell culture medium were added to a subconfluent monolayer of 3T3 fibroblasts (n=3). The cells were cultured for 24 hours at 37° C., 5% CO2, and >90% RH and then washed with PBS. Neutral red solution (0.4%) in DMEM was added, and the cells were stained for 3 hours. Following removal of the staining solution and washing the cells with PBS, the cells were destained using 50% ethanol, 49% ddH2O and 1% glacial acetic acid. Following 10 minutes of agitation, absorbance was measured at 540 nm and used to quantify cell viability. […] Culture medium was used as a negative control. Cell culture medium consisted of high glucose DMEM substituted with L-glutamine, penicillin/streptomycin, 10% v/v newborn calf serum and 20 mM HEPES.

[3] = system: Swiss Webster (SW) mice; assay: Ear hole closure in ear-punched Swiss Webster mice; assay type: in vivo, mouse; details: SW mice given 2 mg/ml drug/gel 3 times plus the inhibitor
Text: Inbred mouse strains were used to study the effect of a small molecule inhibitor of PHD on in-vitro and in-vivo levels of HIF1a, and the impact of this on quantitative regenerative ear hole closure phenotypes. In animal studies, 2.1 mm ear hole punch wounds were created and a 1,4-DPCA-containing hydrogel was subcutaneously implanted in the back of the neck of mice at multiple time-points. Healing was monitored by measuring hole diameters. Endpoints of the study were previously determined to be 30+ days post-injury and included key indices of tissue regeneration such as blastema formation, epithelial, dermal, and cartilaginous wound closure with hair follicle replacement plus multiple molecular markers of cellular de-differentiation, re-differentiation, and stem cell state. These parameters were determined by physical measurements of wound closure, standard tissue histology and histomorphometry, and gene expression using quantitative immunohistochemistry, western analysis, and qPCR. The experimental groups were coded and different laboratory personnel were involved in injuries, injections, phenotyping and data analysis. […]

[4] = system: SW ear tissue; assay: Histology, immunostaining and qPCR of injured ear tissue of SW mice; assay type: in vivo, mouse
Description: (§1) Total RNA from ear fibroblast-like cells or ear hole donuts was prepared with Qiagen RNeasy kit (Qiagen) according to the manufacturer's guidelines. First strand cDNA was synthesized from 1 μg of RNA using the Superscript First-Strand Synthesis System (Invitrogen, Carlsbad, Calif.) according to the manufacturer's instructions. qPCR was performed with SYBR green PCR Master Mix (Applied Biosystems, Life Technologies). In brief, a 20 μl mixture was used containing 10 μl SYBR Green PCR master mix, 1 μl forward and reverse primer, 6 μl sterile water, and 2 μl of complementary DNA template. A negative control (non-template control) was performed in each run. The real-time PCR was performed using a Quant Studio 6 Flex (Applied Biosystems) according to the manufacturer's instructions. All data were normalized to 18S rRNA and quantitative measurements were obtained using the ΔΔCT method. (The primers used are listed with the kit, but not shown, here.
The methods used were performed as previously described. Tissue from normal ears were fixed with Prefer fixative (the active ingredient is glyoxal) (Anatech) overnight and then washed in H2O. Tissue was embedded in paraffin and 5-μm thick sections cut. Before staining, slides were dewaxed in xylene and rehydrated. Antigen retrieval was performed by autoclaving for 20 min in 10 mM Sodium Citrate, pH 6.0. Tissue sections were then treated with 3% H2O2 and nonspecific binding was blocked with 4% BSA (A7906; Sigma) for 1 h. For immunocytochemistry staining, primary ear skin fibroblasts were grown on coverslips in DMEM with 10% FBS at 37° C. in a humidified 5% CO2 incubator. The coverslips were rinsed with 1×PBS, the cells were fixed in cold methanol (−20° C.) for 10 min, rinsed with 1×PBS, treated with 0.1% Triton-X100, and then incubated with the appropriate primary and secondary antibodies (Table 1). Photomicrographs were produced using the fluorescent microscope (Olympus AX70) and a Spot camera with bundled software.
For histological stains, tissue sections were treated the same as above and then stained with Hematoxylin (Leica Microsystems, #3801562) and Eosin (Leica Microsystems, #3801602), Picro-Sirius Red (Poly Scientific, cat. # s2365), Alcian blue (1% in 3% acetic acid (Polyscience, Bay Shore, N.Y., cat # S111A), or toluidine blue O (Allied Chemical, Morristown, N.J., cat. # NA0652), counterstained with Kernechtrot (Polyscience, Bay Shore, N.Y., cat # S248). The slides were washed, […], cleared with Xylene and coverslipped with Permount mounting media (Fisher, SP15-500). Staining was visualized using an Olympus (AX70) microscope in bright field for H&E and under polarized light for Picro-Sirius Red.
For quantitation of IHC signal, the method used was previously described. Briefly, we used ImagePro v4.0 for image analysis by selecting positive staining from multiple areas in the sections. The number of “positive staining” pixels was determined. The area was expressed in square microns and the final data were expressed as IHC staining signal per square micron. The mean of 2-6 samples were plotted and standard errors calculated.

[5] = system: hydroxylases (PHDs and FIH); details: cited from earlier work
[6] = system: HIF2a; assay: HIF2a levels in injured ear tissue of SW mice (Western); assay type: in vivo, mouse
Description: (§2) Ear tissue samples (3 ear hole donuts/ear from 3 separate mice) were homogenized in radio-immunoprecipitation assay buffer (50 mM Tris-HCl pH 7.6, containing 150 mM NaCl,1% Triton X-100, 1% sodium deoxycholate, 1 mM EDTA and 0.1% SDS) with 1 mM PMSF and a protease inhibitor cocktail (Sigma). Samples with equal amounts of protein (about 40 μg) were loaded into a NuPAGE 4-12% Bis-Tris gradient gel or 8% Bis-Tris gel (Life Technologies, Grand Island, N.Y.), electrophoresed and then electro-transferred onto a PVDF-FL membrane (Immobilon, Billerica, Mass.).
Mice were injected subcutaneously at the base of the neck with 100 μL of 10% (w/v) 1:1 (w/w) ratio of P8Cys (with or without 1,4-DPCA drug crystal) to P8NHS hydrogel prepared in PBS. Each component was kept cold and mixed just prior to injection. At different time points, mice were euthanized and tissues were removed for protein and RNA analysis.

[7] = system: HIF target gene transcription; assay: RT-PCR of HIF target gene transcription in treated B6 cells; assay type: cell-based, mouse
Description: as §1

[8] = Solubility of 1,4-DPCA; assay type: physicochemical
[9] = system: prolyl 4-hydroxylase; details: cited from earlier work
[10] = system: HIF1a; assay: HIF1a levels in injured ear tissue of SW mice after subcutaneous drug/gel injection (Western, IHC); assay type: in vivo, mouse; details: single 100 ul injection, 2 mg/ml drug microcrystals; Western and IHC
Description: The kinetics of the effectiveness of the drug/gel construct in the injured ear was examined to determine how often re-injection would be necessary. After earpunching, a single injection (100 ul) of hydrogel containing either 2 mg/ml drug microcrystals (Gd) or 0 mg/ml drug microcrystals (G0) was given plus an un-injected group. Ears were harvested daily for 5 days (FIG. 3D).
as §2
The methods used were performed as previously described. […]
For quantitation of IHC signal, the method used was previously described. […] The number of “positive staining” pixels was determined. The area was expressed in square microns and the final data were expressed as IHC staining signal per square micron. The mean of 2-6 samples were plotted and standard errors calculated. […]

[11] = system: collagen hydroxylation; details: rats given this compound; cited from earlier work
[12] = day 7, 1,4-DPCA drug/gel-treated SW mice plus inhibitor

Compound: COC(=O)CNC(=O)C(=O)OC [DMOG, dimethyloxallyl glycine]
- diabetic wound healing [1]: enhance diabetic wound healing

Compound: CC(=O)N(O)CCCCCNC(=O)CCC(=O)N(O)CCCCCNC(=O)CCC(=O)N(O)CCCCCN [DFX, desferrioxamine B]
- diabetic wound healing [1]: enhance diabetic wound healing

Compound: CCCCCCCCCCCCOS(=O)(=O)[O-].[Na+] [SDS]
- IC50, cell viability [2]: in the acceptable range

Compound: Endostatin
- effect on ear hole closure induced by 1,4-DPCA drug/gel [3]: almost complete blockage of ear hole closure
- HIF1a, CD31 and OCT3/4 staining [4, 12]: near complete absence
- MMP-9, MPO and neutrophil specific-marker [4, 12]: did not inhibit; also recorded: to a lesser degree
- laminin staining ([4]; day 7, 1,4-DPCA drug/gel-treated SW mice, endostatin compared with siHif1a_3): greater degree of inhibition

Compound: O=C(O)c1c[nH]c2c(ccc3cccnc32)c1=O [1,4-DPCA, 1,4-dihydrophenonthrolin-4-one-3-carboxylic acid]
- inhibition of the hydroxylases in-vitro and in-vivo at the protein level [5]: potent inhibitor
- HIF2a in ear tissue in-vivo [6]: barely affected
- HIF target genes Vegf, Hmox1, Ldh-a, Pgk, Pdk1, Glut1 mRNA [7]: specifically increased
- solubility in water [8]: low solubility
- inhibition of prolyl 4-hydroxylase [9]: selective and potent inhibitor
- day on which HIF1a levels in the ear begin to rise [10]: 1 days
- days of peak HIF1a levels in the ear post-injection [10]: 3 to 4 days
- Laminin (basement membrane) in ear tissue ([4]; SW ear tissue, immunostaining): reduced
- MMP9 in ear tissue ([4]; SW ear tissue, immunostaining): increased
- inflammatory cell markers MPO and Ly6G in ear tissue ([4]; SW ear tissue, immunostaining): increased
- collagen hydroxylation and collagen deposition [11]: inhibition of collagen hydroxylation and a reduction in collagen deposition
